The results in this text go back to patent US7767658B2 (priority 2003, dated 2010).

Assay [1] relates to spleen cells secreting γ-interferon. Format: in vivo, BALB/c mice. The note with it: after restimulation with inactivated SARS virus; in response to some of the peptides used.
For assay [2], the system named is spleen cells stimulated with the whole inactivated virus. Format: in vivo, BALB/c mice. The note with it: after stimulation with inactivated virus; mice given ethyl DOPC in addition to the antigen.

As for `CCCCCCCC/C=C\CCCCCCCC(=O)OC[C@@H](COP(=O)(OCC)OCC[N+](C)(C)C)OC(=O)CCCCCCC/C=C\CCCCCCCC` (stereo partly drawn) [ethyl DOPC, 1,2-dioleoyl-sn-glycero-3-ethylphosphocholine], the “production of γ-interferon (ELISPOT after restimulation)” value in assay [1] is “increased”. In assay [2], the “production of IL-5 (in words)” value is reported as “not clearly modified” and the “production of γ-IFN (in words)” value is listed as “considerably increased”.
